Where “and” joins values, the source holds several entries; their conditions need not be identical. Equal entries are not always repeated.
Experiments:
[1] = tested on: Sprague-Dawley rat hepatocytes; assay: MetID determination in rat hepatocytes; type: in vitro ADME; details: for major metabolic pathway: rat hepatocytes
Protocol: (§1) Cryopreserved human and Sprague-Dawley rat hepatocytes were thawed in a 37° C. water bath. […] Samples were obtained from separate plates for each time point during the incubation. At each sampling time, the plates were removed from the incubator, quenched by adding 100 μL cold acetonitrile, and placed in an ice bath until centrifugation at 4,000 rpm for 30 minutes at 4° C. Supernatants were stored at or below −70° C. until LC-MS/MS analysis could be conducted. The liquid chromatography system used was Agilent 1100 Autosampler, Binary Pump, DAD and Column Enclosure. Tandem mass spectrometry was conducted using a Thermo DECA XP MAX Ion Trap Mass Spectrometer. The ion source was Electrospray (+) and the LC column used was a Varian, Polaris 5 C18-A (250×2.1 mm, 5 micron) column.
(§2) Metabolic pathways of metoclopramide and conjugates were determined in rat and human hepatocytes. N-dealkylation was the major metabolic pathway for metoclopramide in rats, and metabolism in human hepatocytes was minimal. […] FIG. 2 and FIG. 3 show the metabolic pathway of for mPEG1-N-metoclopramide and mPEG4-N-metoclopramide, respectively. […] In this figure, different metabolites for each conjugate are denoted with the “M” and correspond to the designation provided in the figure for a given conjugate. For example, metabolite M1 for mPEG1-N-metoclopramide in Table 6 corresponds to M1 in FIG. 2, metabolite M2 for mPEG4-N-metoclopramide in Table 6 corresponds to M2 in FIG. 3 and metabolite M3 mPEG8-N-metoclopramide in Table 6 corresponds to M3 in FIG. 4.

human hepatocytes = assay: MetID determination in human hepatocytes; type: in vitro ADME
Protocol: as §1, §2

in vivo = details: male, Sprague Dawley, rat, plasma; for AUC(0-inf) / MRT inf / Vd / clearance / half-life: iv, 0.5 mg/kg
Protocol: (§3) Rat pharmacokinetic (“PK”) characterization was conducted in male Sprague Dawley Rats (Rattus Norvegicus) weighing between 210-260 gm (Charles River Laboratories (Hollister, Calif.)). Rats were fed a standard diet and water was available ad-libidum at all times. […] Animals were dosed either orally (2.5 mg/Kg) via gavage or intravenously (0.5 mg/kg) via the jugular vein cannula. Blood samples (˜0.15 mL) were collected through carotid artery cannula at respective time points and transferred immediately into K2EDTA-coated tubes (that contain quenching media-acetic acid, PMSF and Dichlorvos) and placed on ice. The samples were centrifuged within thirty minutes after collection at 10,000 RPM for five minutes and the resulting plasma was separated. Plasma were transferred into microfuge tubes and placed on dry ice immediately. The plasma samples were stored at approximately −70° C. until shipped on dry ice for Bioanalysis by LC/MS/MS. Urine samples were collected using metabolic cages into a tube containing citric acid (4 mg for 0-4 and 4-8 hr interval and 16 mg for 8-24 hr interval) on wet ice at the intervals specified in the study design. After the completion of urine collection at each interval, each cage was rinsed with 2 mL of deionized water (1 mL each time). The rinse was collected in the separate labeled container (containing 2 mg of citric acid) as the urine. Following this rinse another 2 ml rinse was carried out with ethanol (1 ml each time). The rinse was also collected in the separate labeled container as the urine. Samples were stored frozen at −70° C. until bioanalysis by LC/MS/MS was performed.
(§4) Pharmacokinetic parameters were determined by non-compartmental analysis using Phoenix®WinNonlin® (Version 6.3; Pharsight Corp., Mountain View, Calif.). Nominal doses and sampling times were used for the analysis. Concentrations reported as BLQ were treated as missing unless they were pre-dose; then they were set to zero. Maximum plasma concentration (Cmax) and time of observed maximum plasma analyte concentration (Tmax) were generated by Phoenix®WinNonlin®, directly from the inputed dataset. […] Area under the plasma concentration-time curve from time 0 to infinity (AUCinf) was calculated as the sum of AUClast and the last observed concentration divided by k. Total plasma clearance (CL) was calculated as Dose/AUCinf. Apparent volume of distribution at steady state (Vss) was calculated as MRTinf*CL, where MRT is the mean residence time.

dopamine 2S receptor = target: T1, dopamine 2S receptor (Homo sapiens, UniProt P14416); assay: β-Arrestin functional assay (dopamine), antagonist mode; type: cell-based; details: for Fold-change Relative to Parent: IC50 relative to metoclopramide, D2S β-arrestin; for IC50: β-arrestin interaction, CHO-K1 cells expressing D2S, dopamine at EC80 (400 nM)
T1 construct: host or cells: CHO-K1 (PathHunter eXpress β-arrestin cells)
T1 sequence (P14416 1-414 isoform P14416-2): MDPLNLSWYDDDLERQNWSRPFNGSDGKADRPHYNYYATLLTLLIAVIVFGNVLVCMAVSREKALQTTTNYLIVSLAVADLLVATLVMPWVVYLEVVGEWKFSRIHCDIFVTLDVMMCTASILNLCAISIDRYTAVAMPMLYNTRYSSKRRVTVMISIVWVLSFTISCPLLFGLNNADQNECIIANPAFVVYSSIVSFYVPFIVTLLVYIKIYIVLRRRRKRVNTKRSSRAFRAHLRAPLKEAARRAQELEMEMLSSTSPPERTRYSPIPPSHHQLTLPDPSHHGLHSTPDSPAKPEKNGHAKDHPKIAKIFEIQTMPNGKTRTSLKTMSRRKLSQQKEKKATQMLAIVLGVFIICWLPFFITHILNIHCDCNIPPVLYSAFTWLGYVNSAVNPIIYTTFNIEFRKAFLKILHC

dopamine 2L receptors = dopamine 2L receptors (Homo sapiens, UniProt P14416); assay: Competition binding assay (dopamine 2L receptors), [3H]methylspiperone; design: expressed in transfected cells; details: for Fold-change Relative to Parent: IC50 relative to metoclopramide, D2L binding; for IC50: [3H]methylspiperone competition, HEK 293 membranes expressing D2L, read-out: IC50
Sequence of dopamine 2L receptors (P14416 whole entry): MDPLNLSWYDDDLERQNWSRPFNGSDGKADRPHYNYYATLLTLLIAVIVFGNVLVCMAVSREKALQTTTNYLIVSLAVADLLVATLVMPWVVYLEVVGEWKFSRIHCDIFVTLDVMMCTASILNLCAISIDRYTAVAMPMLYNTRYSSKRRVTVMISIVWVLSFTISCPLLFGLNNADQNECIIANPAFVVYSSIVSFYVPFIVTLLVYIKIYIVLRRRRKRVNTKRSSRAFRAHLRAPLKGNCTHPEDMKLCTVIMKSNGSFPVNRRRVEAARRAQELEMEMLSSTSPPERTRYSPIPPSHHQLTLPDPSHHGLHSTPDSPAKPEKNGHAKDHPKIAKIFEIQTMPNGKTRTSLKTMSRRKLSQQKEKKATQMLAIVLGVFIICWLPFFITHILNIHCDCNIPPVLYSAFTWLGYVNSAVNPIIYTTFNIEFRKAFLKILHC
Protocol: [^3H] Methylspiperone was diluted in assay buffer to a final concentration of 0.4 nM. To start the assay, 1 uL of compound was added into 96-well v-bottom plates, followed by the addition of 50 uL of diluted membrane preparation, then finally diluted [^3H] Methylspiperone was added. The assay mixture was incubated for 60 minutes at room temperature with shaking. Following incubation, bound [^3H] methylspiperone on 5% PEI soaked GF/B filter plates using a Filtermate Harvester (Perkin Elmer) were then washed four times with ice cold wash buffer (50 mM Tris-HCl, pH 7.5). Filter plates were air dried for two minutes, and then 50 uL of MicroScint-20 was added into each well. Radioactivity counts were quantified using a Top Count plate reader (Perkin Elmer). Data was analyzed using one-site binding competition non-linear regression curve fitting on GraphPad Prism.

[2] = Rat PK (intravenous and oral); details: for CLRen: intravenous, 0.5 mg/kg
Protocol: as §3, §4

[3] = target: serotonin 4 receptor (5HT4) (Homo sapiens, UniProt Q13639); assay: cAMP accumulation assay (serotonin 4 receptors); type: cell-based
Sequence of serotonin 4 receptor (5HT4) (Q13639 whole entry, species assumed): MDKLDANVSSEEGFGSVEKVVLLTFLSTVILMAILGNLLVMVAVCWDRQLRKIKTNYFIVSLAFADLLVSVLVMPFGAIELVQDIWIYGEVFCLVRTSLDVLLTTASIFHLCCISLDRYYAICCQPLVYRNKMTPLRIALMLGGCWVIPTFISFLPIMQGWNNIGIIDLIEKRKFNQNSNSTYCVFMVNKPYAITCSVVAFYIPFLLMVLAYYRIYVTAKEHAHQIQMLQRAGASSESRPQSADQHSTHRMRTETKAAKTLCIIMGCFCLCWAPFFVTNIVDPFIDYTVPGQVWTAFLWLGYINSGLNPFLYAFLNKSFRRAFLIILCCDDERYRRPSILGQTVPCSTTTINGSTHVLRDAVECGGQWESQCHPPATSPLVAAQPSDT

[4] = target: T2, 5HT4B receptors (serotonin 4B receptors) (Homo sapiens, UniProt Q13639); assay: Competition binding assay (serotonin 4B receptors), [3H]GR113808; details: for Fold-change Relative to Parent: IC50 relative to metoclopramide, 5HT4B binding; for IC50: [3H]GR113808 competition, HEK 293 membranes expressing 5HT4B
T2 construct: expressed in transfected cells
T2 sequence (Q13639 whole entry): as the sequence (Q13639 whole entry, species assumed) above

[5] = incubation of 10 μM mPEG4-N-metoclopramide, parent and its metabolites M (FIG. 3)
[6] = incubation of 10 μM mPEG8-N-metoclopramide, parent and its metabolites M (FIG. 4)
[7] = incubation of 10 μM mPEG1-N-metoclopramide, parent and its metabolites M (FIG. 2)

## CCN(CCO)CCNC(=O)c1cc(Cl)c(N)cc1OC [M6]
[1]; [5]
  % of Total Metabolism, Rat Hep 1 hr: trace
  % of Total Metabolism, Rat Hep 4 hr: trace
[1]; [6]
  % of Total Metabolism, Rat Hep 1 hr: 1%
  % of Total Metabolism, Rat Hep 4 hr: 2.2%

## CCN(CCNC(=O)c1cc(Cl)c(N)cc1OC)CCOCCO [M7]
Human hepatocytes; [6]
  % of Total Metabolism, Human Hep 1 hr: trace
  % of Total Metabolism, Human Hep 4 hr: trace
[1]; [5]
  % of Total Metabolism, Rat Hep 1 hr: 1.7%
  % of Total Metabolism, Rat Hep 4 hr: 1.2%
[1]; [6]
  % of Total Metabolism, Rat Hep 1 hr: 1.2%
  % of Total Metabolism, Rat Hep 4 hr: 2.2%

## CCN(CCNC(=O)c1cc(Cl)c(N)cc1OC)CCOCCOCCO [M8]
Human hepatocytes; [6]
  % of Total Metabolism, Human Hep 1 hr: trace
  % of Total Metabolism, Human Hep 4 hr: trace
[1]; [5]
  % of Total Metabolism, Rat Hep 1 hr: trace
  % of Total Metabolism, Rat Hep 4 hr: 1.5%
[1]; [6]
  % of Total Metabolism, Rat Hep 1 hr: 1.3%
  % of Total Metabolism, Rat Hep 4 hr: 2.5%

## CCN(CCNC(=O)c1cc(Cl)c(N)cc1OC)CCOCCOCCOCCO [M9]
Human hepatocytes; [5]
  % of Total Metabolism, Human Hep 4 hr: 1.9%
Human hepatocytes; [6]
  % of Total Metabolism, Human Hep 1 hr: trace
  % of Total Metabolism, Human Hep 4 hr: trace
[1]; [5]
  % of Total Metabolism, Rat Hep 1 hr: 8.8%
  % of Total Metabolism, Rat Hep 4 hr: 24.8%
[1]; [6]
  % of Total Metabolism, Rat Hep 1 hr: Trace
  % of Total Metabolism, Rat Hep 4 hr: 1.6%

## CCN(CCO)CCNC(=O)c1cc(Cl)c(N)cc1OC [M10]
[1]; [6]
  % of Total Metabolism, Rat Hep 4 hr: trace

## CCN(CCNC(=O)c1cc(Cl)c(N)cc1OC)CCOCCO [M11]
[1]; [6]
  % of Total Metabolism, Rat Hep 1 hr: Trace
  % of Total Metabolism, Rat Hep 4 hr: 3.5%

## CCN(CCNC(=O)c1cc(Cl)c(N)cc1OC)CCOCCOCCO [M12]
Human hepatocytes; [6]
  % of Total Metabolism, Human Hep 4 hr: trace
[1]; [6]
  % of Total Metabolism, Rat Hep 1 hr: Trace
  % of Total Metabolism, Rat Hep 4 hr: 0.7%

## CCN(CCNC(=O)c1cc(Cl)c(N)cc1OC)CCOCCOCCOCCO [M13]
Human hepatocytes; [6]
  % of Total Metabolism, Human Hep 4 hr: 2.7%
[1]; [6]
  % of Total Metabolism, Rat Hep 1 hr: 3.0%
  % of Total Metabolism, Rat Hep 4 hr: 12.6%

## CCN(CCNC(=O)c1cc(Cl)c(N)cc1OC)CCOCCOCCOCCOCCO [M14]
Human hepatocytes; [6]
  % of Total Metabolism, Human Hep 1 hr: trace
  % of Total Metabolism, Human Hep 4 hr: trace
[1]; [6]
  % of Total Metabolism, Rat Hep 1 hr: Trace
  % of Total Metabolism, Rat Hep 4 hr: 2%

## CCN(CCNC(=O)c1cc(Cl)c(N)cc1OC)CCOCCOCCOCCOCCOCCO [M15]
Human hepatocytes; [6]
  % of Total Metabolism, Human Hep 1 hr: trace
  % of Total Metabolism, Human Hep 4 hr: trace
[1]; [6]
  % of Total Metabolism, Rat Hep 1 hr: Trace
  % of Total Metabolism, Rat Hep 4 hr: 1%

## CCN(CCNC(=O)c1cc(Cl)c(N)cc1OC)CCOCCOCCOCCOCCOCCOCCO [M16]
Human hepatocytes; [6]
  % of Total Metabolism, Human Hep 1 hr: trace
  % of Total Metabolism, Human Hep 4 hr: trace
[1]; [6]
  % of Total Metabolism, Rat Hep 1 hr: trace
  % of Total Metabolism, Rat Hep 4 hr: trace

## CCN(CCNC(=O)c1cc(Cl)c(N)cc1OC)CCOCCOCCOCCOCCOCCOCCOCCO [M17]
Human hepatocytes; [6]
  % of Total Metabolism, Human Hep 1 hr: trace
  % of Total Metabolism, Human Hep 4 hr: trace
[1]; [6]
  % of Total Metabolism, Rat Hep 1 hr: trace
  % of Total Metabolism, Rat Hep 4 hr: trace

## CCN(CCNC(=O)c1cc(Cl)c(N)cc1OC)CCOC [mPEG1-N-Metoclopramide]
In vivo
  AUC(0-inf): 88.3 ng·h/mL
  MRT inf: 27.6 min
  Vd: 2.84 L/kg
  clearance: 101 mL/min/kg
  half-life: 39 min
In vivo; po, 2.5 mg/kg
  AUC: 24.2 ng·h/mL
  CL/F: 1550 mL/min/kg
  Cmax: 33.2 ng/mL
  Tmax: 4.8 min
  bioavailability: 6.25%
Human hepatocytes
  extent of metabolism in human hepatocytes: low metabolism
Human hepatocytes; [7]
  % of Total Metabolism, Human Hep 1 hr: 86.5%
  % of Total Metabolism, Human Hep 4 hr: 90.2%
[1]; [7]
  % of Total Metabolism, Rat Hep 1 hr: 32.7%
  % of Total Metabolism, Rat Hep 4 hr: <1.0%
[1]
  major metabolic pathway: N-dealkylation
Dopamine 2S receptor
  Fold-change Relative to Parent: 4.19
  IC50: 0.345 µM
Dopamine 2L receptors
  Fold-change Relative to Parent: 2.8
  IC50: 0.233 µM
[2]
  CLRen: 4.4 mL/min/kg
[2]; oral gavage, 2.5 mg/Kg
  Clast: 4.39 ng/mL
  Tlast: 2.5 h
[3]; IC50 relative to metoclopramide, 5HT4 cAMP
  Fold-change Relative to Parent: 1.5
[3]; cAMP accumulation, CHO-K1 cells stably expressing 5HT4
  IC50: 1.59 µM
[4]
  Fold-change Relative to Parent: 1.3
  IC50: 19.7 µM

## CCN(CCNC(=O)c1cc(Cl)c(N)cc1OC)CCOCCOC [mPEG2-N-Metoclopramide]
Dopamine 2S receptor
  Fold-change Relative to Parent: 9.57
  IC50: 0.786 µM
Dopamine 2L receptors
  Fold-change Relative to Parent: 16.1
  IC50: 1.36 µM
[4]
  Fold-change Relative to Parent: 2.0
  IC50: 29.7 µM

## CCN(CCNC(=O)c1cc(Cl)c(N)cc1OC)CCOCCOCCOCCOCCOCCOCCOC [mPEG7-N-Metoclopramide]
Dopamine 2S receptor
  Fold-change Relative to Parent: 99.57
  IC50: 8.18 µM
Dopamine 2L receptors
  Fold-change Relative to Parent: 137.3
  IC50: 11.6 µM
[4]
  Fold-change Relative to Parent: 8.8
  IC50: 133 µM

## CCN(CCNC(=O)c1cc(Cl)c(N)cc1OC)CCOCCOCCOCCOCCOCCOCCOCCOC [mPEG8-N-Metoclopramide]
In vivo
  AUC(0-inf): 98.3 ng·h/mL
  MRT inf: 146 min
  Vd: 17.8 L/kg
  clearance: 84.4 mL/min/kg
  half-life: 145 min
Human hepatocytes
  extent of metabolism in human hepatocytes: only minor metabolism
Human hepatocytes; [6]
  % of Total Metabolism, Human Hep 1 hr: 100%
  % of Total Metabolism, Human Hep 4 hr: 94.8%
[1]; hepatocytes
  N-dealkylation compared with metoclopramide: less compared with metoclopromide
[1]; [6]
  % of Total Metabolism, Rat Hep 1 hr: 83%
  % of Total Metabolism, Rat Hep 4 hr: 43.5%
[1]
  major metabolic pathway: PEG chain modification
Dopamine 2S receptor
  Fold-change Relative to Parent: 67.4
  IC50: 5.53 µM and 5.54 µM
Dopamine 2L receptors
  Fold-change Relative to Parent: 80.7
  IC50: 6.79 µM
[2]
  CLRen: 0.54 mL/min/kg
[4]
  Fold-change Relative to Parent: 11.9
  IC50: 181 µM

## CCN(CCNC(=O)c1cc(Cl)c(N)cc1OC)CCOCCOCCOCCOCCOCCOCCOCCOCCOC [mPEG9-N-Metoclopramide]
Dopamine 2S receptor
  Fold-change Relative to Parent: 87.86
  IC50: 7.22 µM
Dopamine 2S receptor; listed as mPEG9-N-metoclopramide
  Fold-change Relative to Parent: 87.6
Dopamine 2L receptors
  Fold-change Relative to Parent: 131.9
  IC50: 11.1 µM
[4]
  Fold-change Relative to Parent: 13.3
  IC50: 202 µM
